According to patent US11040038B2, “Methods for treating diseases associated with abnormal ACVR1 expression and ACVR1 inhibitors for use in the same” (Sumitomo Dainippon Pharma Oncology, Inc., priority 2018, dated 2021):

Legend:
[1] = system: SMAD1/5 phosphorylation in BMP2 stimulated HepG2 cells; experiment: Inhibition of SMAD1/5 phosphorylation in BMP2 stimulated HepG2 cells; format: cell-based; conditions: Homo sapiens; HepG2 cells stimulated with BMP2
From the text: SMAD proteins are transcription factors involved in signaling downstream of TGFβ receptors. The TGFβ receptor ALK2 phosphorylates SMADs when activated by bone morphogenic proteins such as BMP2, which leads to SMAD nuclear translocation, transcriptional initiation and increased expression of genes like HAMP which codes for the peptide hormone hepcidin. Therefore, compounds that target ALK2 should inhibit BMP induced SMAD phosphorylation. In order to evaluate the in vitro potency of Compound 2, HepG2 cells were stimulated with the ALK2 ligand BMP2 in the presence or absence of various concentrations of Compound 2.

[2] = system: ACVR1 mutant (G328V mutated cell line) and wild type DIPG cell lines; experiment: Proliferation assay against DIPG cell lines; format: cell-based; conditions: ACVR1 G328V mutant vs wild type DIPG cell lines
Method: Compound 2 was tested in a proliferation assay against ACVR1 mutant (G328V mutated cell line) and wild type DIPG cell lines in vitro.

[3] = system: ALK2/ACVR1 having various mutations; experiment: Activity on ALK2/ACVR1 having various mutations (FIG. 8); format: biochemical
From the text: Biochemical Studies indicate that mutations in the intracellular domain can have activating effects on ACVR1/ALK2 kinase activity. Many of the known mutations enhance the activity of the receptor in response to the receptor ligand.

[4] = IV and PO plasma pharmacokinetics in rats; format: in vivo; conditions: Sprague-Dawley, rat, fasted female SD rats
Method: Pharmacokinetic and toxicology of Compound 2 were tested in rats. The intravenous (IV) and oral (PO) pharmacokinetics of Compound 2 were determined in plasma in fasted female Sprague-Dawley (SD) rats. The formulation used was 20% solutol and 80% saline for both administration routes. The nominal dose was 2 mg/kg (IV) and 20 mg/kg (PO). Samples were taken at 8 time points and the drug concentrations were determined by LC-MS/MS.

[5] = Pharmacokinetic and tissue distribution study; format: in vivo, CD-1 male mice; conditions: mice, 20 mg/kg PO; for Cmax / Tmax / half-life / AUC(0-t) / AUC: male, CD-1, mouse; for AUC: read-out: AUC0-?
Method: An additional pharmacokinetic and tissue distribution study was conducted to comprehensively evaluate Compound 2 exposure in multiple mouse organs. CD-1 male mice were dosed 20 mg/kg, PO with Compound 2 formulated in 20% solutol and 80% saline. Plasma and organs were collected at nine (9) time points and the drug concentrations were determined by LC-MS/MS. […] The results confirmed exposure in clinically relevant target organs, including brain and liver (Table 7).

ACVR1 Wild Type = target: T1, ACVR1 Wild Type (Homo sapiens, UniProt Q04771); experiment: ACVR1 kinase assay, casein substrate, 33P-ATP, filter binding; format: biochemical; conditions: 10 μM ATP
T1 sequence (Q04771 21-509): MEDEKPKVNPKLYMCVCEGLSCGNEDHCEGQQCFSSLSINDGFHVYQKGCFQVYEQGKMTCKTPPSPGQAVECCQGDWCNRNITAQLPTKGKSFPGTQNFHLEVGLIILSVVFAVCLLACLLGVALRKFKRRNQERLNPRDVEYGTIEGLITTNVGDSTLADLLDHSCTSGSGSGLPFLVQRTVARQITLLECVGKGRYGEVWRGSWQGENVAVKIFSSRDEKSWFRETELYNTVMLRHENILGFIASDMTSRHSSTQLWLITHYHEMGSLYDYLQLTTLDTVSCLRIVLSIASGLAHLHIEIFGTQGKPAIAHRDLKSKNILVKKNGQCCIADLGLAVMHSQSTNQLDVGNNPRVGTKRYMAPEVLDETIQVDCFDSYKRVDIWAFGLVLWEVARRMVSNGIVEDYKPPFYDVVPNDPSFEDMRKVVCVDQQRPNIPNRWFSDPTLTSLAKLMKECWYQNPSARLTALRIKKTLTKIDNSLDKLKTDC
Method: In brief, casein-based substrates were prepared. The respective ACVR1 kinase was added to the substrate mixture and hot/cold 33P-ATP (10 μM) was added to initiate the reaction. The activity was then measured with a filter binding method.
The IC50 values against the kinases are listed below in Table 3.

[6] = Oral pharmacokinetics in a single human DIPG patient; format: in vivo; conditions: free base, nominal 240 mg/m2 PO
Method: Compound 2 free base was tested in humans. Oral pharmacokinetics of Compound 2 were determined in a single human patient for the treatment of DIPG. The formulation was free base Compound 2 by gelatin capsule daily for 15 days, followed by a 20-day suspension period. Dosing was resumed by dissolving in juice and administering via nasogastric tube for 9 days. The nominal dose is 240 mg/m2 (PO). Blood samples were collected at four (4) time points and the drug concentrations are determined by LC-MS/MS.
Additional PK parameters were evaluated.

EC50 [1]: 0.162 µM
AUC ([4]; 20 mg/kg PO): 2520 ng·h/mL
Cmax ([4]; 20 mg/kg PO): 159 ng/mL
Tmax ([4]; 20 mg/kg PO): 5.33 h
half-life ([4]; 20 mg/kg PO): 6.58 h
bioavailability ([4]; 20 mg/kg PO vs 2 mg/kg IV, read-out: Oral Bioavailability (% F)): 60.8%
Cmax ([5]; adrenals): 13800 ng/g
Tmax ([5]; adrenals): 1.3 h
half-life ([5]; adrenals): 3.3 h
Cmax ([5]; bladder): 2220 ng/g
Tmax ([5]; bladder): 3 h
half-life ([5]; bladder): 3.1 h
AUC(0-t) ([5]; bone marrow): 1940 ng·h/mL
Cmax ([5]; bone marrow): 240 ng/mL
Tmax ([5]; bone marrow): 4.5 h
half-life ([5]; bone marrow): 4.6 h
AUC ([5]; bone marrow): 2020 ng·h/mL
Cmax ([5]; brain): 1690 ng/g
Tmax ([5]; brain): 3.2 h
half-life ([5]; brain): 2.6 h
Cmax ([5]; intestine): 20200 ng/g
Tmax ([5]; intestine): 1.8 h
half-life ([5]; intestine): 3.6 h
Cmax ([5]; kidney): 31100 ng/g
Tmax ([5]; kidney): 2.3 h
half-life ([5]; kidney): 2.5 h
Cmax ([5]; liver): 79900 ng/g
Tmax ([5]; liver): 0.8 h
half-life ([5]; liver): 3.3 h
Cmax ([5]; lung): 18300 ng/g
Tmax ([5]; lung): 1.3 h
half-life ([5]; lung): 2.8 h
Cmax ([5]; pancreas): 10600 ng/g
Tmax ([5]; pancreas): 3.2 h
half-life ([5]; pancreas): 2.6 h
AUC(0-t) ([5]; plasma): 2340 ng·h/mL
Cmax ([5]; plasma): 378 ng/mL
Tmax ([5]; plasma): 1 h
half-life ([5]; plasma): 3.8 h
AUC ([5]; plasma): 2380 ng·h/mL
Cmax ([5]; spleen): 36200 ng/g
Tmax ([5]; spleen): 6 h
half-life ([5]; spleen): 13.3 h
Cmax ([5]; stomach): 17300 ng/g
Tmax ([5]; stomach): 0.5 h
half-life ([5]; stomach): 3.6 h
AUC0-? ([5]; adrenals): 76421 ng*h/G
AUCLast ([5]; adrenals): 75782 ng*h/G
AUC0-? ([5]; bladder): 17546 ng*h/G
AUCLast ([5]; bladder): 17386 ng*h/G
AUC0-? ([5]; brain): 7756 ng*h/G
AUCLast ([5]; brain): 7729 ng*h/G
AUC0-? ([5]; intestine): 52421 ng*h/G
AUCLast ([5]; intestine): 51891 ng*h/G
AUC0-? ([5]; kidney): 152790 ng*h/G
AUCLast ([5]; kidney): 152492 ng*h/G
AUC0-? ([5]; liver): 286210 ng*h/G
AUCLast ([5]; liver): 284827 ng*h/G
AUC0-? ([5]; lung): 76908 ng*h/G
AUCLast ([5]; lung): 76622 ng*h/G
AUC0-? ([5]; pancreas): 53297 ng*h/G
AUCLast ([5]; pancreas): 53163 ng*h/G
AUC0-? ([5]; spleen): 627382 ng*h/G
AUCLast ([5]; spleen): 406119 ng*h/G
AUC0-? ([5]; stomach): 32717 ng*h/G
AUCLast ([5]; stomach): 32467 ng*h/G
IC50 (ACVR1 Wild Type): 0.0045 µM
Oral absorption, detection in plasma [6]: detected in plasma 24 hours post-dosing
Structure (SMILES): COc1cc(Nc2nccc(Nc3cccnc3-c3ccccn3)n2)ccc1N1CCN(C)CC1 [Compound 2, N^4-(2,2′-bipyridin-3-yl)-N^2-(3-methoxy-4-(4-methylpiperazin-1-yl)phenyl)pyrimidine-2,4-diamine]
Activity in proliferation assay [2]: selective activity against the mutated cell line
Inhibition of ALK2 receptors having various mutations [3]: effective in inhibiting ALK2 receptors having various mutations
